Source: patent US10246498B2, “Genetically encoded histone reporter allele constructs” (THE JOHNS HOPKINS UNIVERSITY, priority 2014, dated 2019)
Entries after “also recorded” stand apart in the source; their conditions may differ.

Test system: H3K4me3 in the GCL
Experiment: Immunofluorescence of H3K4me3 in dentate gyrus GCL after oral AR-42
Assay type: in vivo, mouse
Source text: Kmt2d^+/βGeo mice, also named Mll2Gt^(RRt024)Byg, were acquired from Bay Genomics (University of California). All experimental mice were on a mixed C57BL/6J and 129/SvEv background. Expected Mendelian ratios were observed when heterozygous animals were bred to wild-type. In heterozygous crosses, however, there was uniform embryonic lethality of homozygotes by ED12, the earliest developmental stage assayed. For treatment with AR-42, mice were orally gavaged daily with drug (Selleck Chemicals, Houston, Tex.) solubilized in vehicle (0.5% methylcellulose, 0.1% Tween-80, water) or with vehicle alone. Drug delivery information was kindly provided by Drs. […] For quantification of DCX positive cells, doses of 0, 5, 10 and 25 mg/kg/day were used. […] Maxillary protrusion was evaluated by ten investigators blinded to genotype and they were asked to rate maxillary protrusion on radiographs as either large (2) or small (1). […]
Z-stack images of slides were taken at either 10× using Zeiss Axiovert 200 with 510-Meta confocal module (Carl Zeiss, Jena, GER) or 25× using Zeiss AxioExaminer with 710NLO-Meta multiphoton (Carl Zeiss, Jena, GER). From 10× pictures, the GCL was highlighted and fluorescent intensities for both DAPI and H3K4me3 were measured at the midpoint of the entire z-stack (Zen software, Carl Zeiss, Jena, GER) with the value for Kmt2d^+/+ animals set equal to one. […]

With `CC(C)[C@H](C(=O)Nc1ccc(C(=O)NO)cc1)c1ccccc1` [AR-42] the “H3K4me3 in the GCL” value (25 mg/kg/day, oral, two weeks) was “increased H3K4 trimethylation; also recorded: increased H3K4me3” and the “H3K4me3 in the GCL” value (5 and 10 mg/kg/day, both genotypes) was “dose-dependent increase in H3K4me3”.
